# Literature values in patent US20140057987A1, “Disinfectant Spray with Indicator” (GENESIS LABORATORIES, INC., priority 2010, published 2014).
# Settings: colour change of indicator
row,Compound,Transition pH range
1,O=C(O)c1cc(N=Nc2ccc([N+](=O)[O-])cc2)ccc1O [Alizarine Yellow R],10.2-12.0 pH
2,Cc1c(C2(c3cc(Br)c(O)c(Br)c3C)OS(=O)(=O)c3ccccc32)cc(Br)c(O)c1Br [Bromocresol green],3.8-5.4 pH
3,Cc1cc(C2(c3cc(C)c(O)c(Br)c3)OS(=O)(=O)c3ccccc32)cc(Br)c1O [Bromocresol purple],5.2-6.8 pH
4,O=S1(=O)OC(c2cc(Br)c(O)c(Br)c2)(c2cc(Br)c(O)c(Br)c2)c2ccccc21 [Bromophenol blue],3.0-4.6 pH
5,Cc1c(C2(c3cc(C(C)C)c(O)c(Br)c3C)OS(=O)(=O)c3ccccc32)cc(C(C)C)c(O)c1Br [Bromothymol blue],6.0-7.6 pH
6,Nc1c(/N=N/c2ccc(-c3ccc(/N=N/c4cc(S(=O)(=O)O)c5ccccc5c4N)cc3)cc2)cc(S(=O)(=O)O)c2ccccc12 [Congo red],3.0-5.0 pH
7,Cc1cc(C2(c3ccc(O)c(C)c3)OS(=O)(=O)c3ccccc32)ccc1O [Cresol Red],7.2-8.8 pH
8,"CN(C)c1ccc(C(=C2C=CC(=[N+](C)C)C=C2)c2ccc(N(C)C)cc2)cc1 [Gentian violet(Methyl violet 10B), Gentian violet]",0.0-2.0 pH
9,CN(C)c1ccc(N=Nc2ccc(S(=O)(=O)[O-])cc2)cc1.[Na+] [Methyl orange],3.1-4.4 pH
10,CN(C)c1ccc(N=Nc2ccccc2)cc1 [Methyl yellow],2.9-4.0 pH
11,O=C1OC(c2ccc(O)c3ccccc23)(c2ccc(O)c3ccccc23)c2ccccc21 [Naphtholphthalein],7.3-8.7 pH
12,Cc1cc2nc3ccc(N(C)C)cc3nc2cc1N.Cl [Neutral red],6.8-8.0 pH
13,O=C1OC(c2ccc(O)cc2)(c2ccc(O)cc2)c2ccccc21 [Phenolphthalein],8.3-10.0 pH
14,Cc1cc(O)c(C(C)C)cc1C1(c2cc(C(C)C)c(O)cc2C)OC(=O)c2ccccc21 [Thymolphthalein],9.3-10.5 pH
15,Azolitmin,4.5-8.3 pH

# Same assay, conditions: colour change of indicator; high pH color green
row,Compound,Transition pH range
1,CN(C)c1ccc(/N=N/c2ccccc2C(=O)O)cc1 [Methyl red],4.5-5.2 pH

# Same assay, conditions: colour change of indicator; high pH color yellow
row,Compound,Transition pH range
1,CN(C)c1ccc(/N=N/c2ccccc2C(=O)O)cc1 [Methyl red],4.4-6.2 pH

# Same assay, conditions: first transition
row,Compound,Transition pH range
1,CN(C)c1ccc(C(c2ccccc2)c2ccc(N(C)C)cc2)cc1 [Leucomalachite green],0.0-2.0 pH
2,Cc1cc(O)c(C(C)C)cc1C1(c2cc(C(C)C)c(O)cc2C)OS(=O)(=O)c2ccccc21 [Thymol blue],1.2-2.8 pH

# Same assay, conditions: second transition
row,Compound,Transition pH range
1,CN(C)c1ccc(C(c2ccccc2)c2ccc(N(C)C)cc2)cc1 [Leucomalachite green],11.6-14.0 pH
2,Cc1cc(O)c(C(C)C)cc1C1(c2cc(C(C)C)c(O)cc2C)OS(=O)(=O)c2ccccc21 [Thymol blue],8.0-9.6 pH
